From US10806794B2, “Protease inhibitors having enhanced features” (priority 2008, dated 2020) come the findings set out here.

In series [1] the target is recombinant HIV-1 protease (Human immunodeficiency virus type 1 group M subtype B (isolate HXB2) (HIV-1), UniProt P04585). The experiment in a line: Enzyme inhibition of purified HIV-1 protease (SensoLyte 520 HIV-Protease Assay Kit). It is filed as biochemical. The conditions noted are these: read-out: IC50 ± SD. An outline of the steps:
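PEG-PI conjugates and parent PIs were tested against recombinant HIV-1 protease. Activity was followed as fluorescence from cleavage of a quenched substrate carrying the p17/p24 Pr^gag cleavage site.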

Series [2] in a line: Metabolic stability in rat liver microsomes. It is filed as in vitro ADME. An excerpt: Metabolic stability of test compounds was studied in rat liver microsomes.
(In general: Liver microsomes are a subcellular fraction often used to study metabolism.)

A short description of series [3]: in vitro. The class given is in vitro ADME. The conditions noted are these: dog, microsomes. An excerpt: Metabolic stability of test compounds was studied in dog liver microsomes.
The nature of series [4]: in vitro. It is filed as in vitro ADME. The settings on record: monkey, microsomes. From the text:
Metabolic stability of test compounds was studied in monkey liver microsomes.

The subject of another series is rat plasma proteins. Put plainly: Plasma protein binding by equilibrium dialysis, rat plasma. The settings on record: fraction unbound. It is filed as in vitro ADME. The method, then:
(§1) In assays to estimate binding of test compounds to plasma proteins, test compound solutions (5 μM) are prepared in buffer and species-specific plasma (final DMSO concentration 0.5%). The plasma-containing solution is added to one side of the membrane of an equilibrium dialysis system, and the plasma-free is added to the other side. Dialysis was allowed to reach equilibrium by incubation for two hours at 37° C. The concentration of compound on both sides of the membrane was measured using LC-MS/MS.
On the technique in general: In equilibrium dialysis free small molecules cross a membrane that holds back macromolecules.

In another series the test system is dog plasma proteins. The experiment in a line: Plasma protein binding by equilibrium dialysis, dog plasma. The settings on record: fraction unbound. It is filed as in vitro ADME. The method, then: as §1
Another series relates to monkey plasma proteins. The experiment in a line: Plasma protein binding by equilibrium dialysis, monkey plasma. It is filed as in vitro ADME. The conditions noted are these: fraction unbound. The method, then: as §1
The test system of the next series is mouse plasma proteins. The experiment in a line: Plasma protein binding by equilibrium dialysis, mouse plasma. The class given is in vitro ADME. The settings on record: fraction unbound. The method, then: as §1
A further series has as its target hERG (Homo sapiens (Human), UniProt Q12809). Put plainly: hERG current (IKr) in HEK-293 cells, whole-cell patch clamp. The class given is cell-based. The conditions noted are these: for Mean % inhibition ± SEM (Block of hERG at 0.1 Hz): HEK-293 cells. Here is the method:
Currents were measured using the whole-cell variant of the patch clamp method. Glass pipettes were produced with tip openings of […] for K current recordings. Pipette tip resistance was approximately 1.0 to 2.0 MΩ when filled with K internal solutions (130 mM KCl, 5 mM MgCl2, 10 mM HEPES, 5 mM EGTA, 5 mM ATP-Na2, pH7.2). An Axopatch 1-B amplifier (Axon Instruments, Foster City, Calif.) was used for whole-cell voltage clamping. Voltage clamp pulses were controlled by pClamp software (ver 9.2, Axon Instruments).
After rupture of the cell membrane, current kinetics and amplitudes were allowed to stabilize as the cell was dialyzed with internal solution and paced at 0.1 Hz (−75 mV; 500 msec, +10 mV; 500 msec, −40 mV; typically 2-4 minutes). Currents were considered stable if the currents elicited by a series of voltage pulses given at 0.1 Hz were superimposed. Peak hERG current was measured as the maximum outward deflection of the tail current elicited upon return to −40 mV.
Data are presented in Table 19 as the percent reduction of current amplitude. This was measured as current reduction after a steady-state effect had been reached in the presence of drug relative to current amplitude before drug was introduced (control). Each cell served as its own control.
A general note: hERG is a cardiac potassium channel; its block is linked to QT prolongation.

A word on the IC50: it is the concentration that inhibits the measured activity by half. One may read the t½ as how long it takes for the measured level to halve.

Structures are written as SMILES. Some results are limits rather than exact numbers.

Sequence of hERG (Q12809 whole entry): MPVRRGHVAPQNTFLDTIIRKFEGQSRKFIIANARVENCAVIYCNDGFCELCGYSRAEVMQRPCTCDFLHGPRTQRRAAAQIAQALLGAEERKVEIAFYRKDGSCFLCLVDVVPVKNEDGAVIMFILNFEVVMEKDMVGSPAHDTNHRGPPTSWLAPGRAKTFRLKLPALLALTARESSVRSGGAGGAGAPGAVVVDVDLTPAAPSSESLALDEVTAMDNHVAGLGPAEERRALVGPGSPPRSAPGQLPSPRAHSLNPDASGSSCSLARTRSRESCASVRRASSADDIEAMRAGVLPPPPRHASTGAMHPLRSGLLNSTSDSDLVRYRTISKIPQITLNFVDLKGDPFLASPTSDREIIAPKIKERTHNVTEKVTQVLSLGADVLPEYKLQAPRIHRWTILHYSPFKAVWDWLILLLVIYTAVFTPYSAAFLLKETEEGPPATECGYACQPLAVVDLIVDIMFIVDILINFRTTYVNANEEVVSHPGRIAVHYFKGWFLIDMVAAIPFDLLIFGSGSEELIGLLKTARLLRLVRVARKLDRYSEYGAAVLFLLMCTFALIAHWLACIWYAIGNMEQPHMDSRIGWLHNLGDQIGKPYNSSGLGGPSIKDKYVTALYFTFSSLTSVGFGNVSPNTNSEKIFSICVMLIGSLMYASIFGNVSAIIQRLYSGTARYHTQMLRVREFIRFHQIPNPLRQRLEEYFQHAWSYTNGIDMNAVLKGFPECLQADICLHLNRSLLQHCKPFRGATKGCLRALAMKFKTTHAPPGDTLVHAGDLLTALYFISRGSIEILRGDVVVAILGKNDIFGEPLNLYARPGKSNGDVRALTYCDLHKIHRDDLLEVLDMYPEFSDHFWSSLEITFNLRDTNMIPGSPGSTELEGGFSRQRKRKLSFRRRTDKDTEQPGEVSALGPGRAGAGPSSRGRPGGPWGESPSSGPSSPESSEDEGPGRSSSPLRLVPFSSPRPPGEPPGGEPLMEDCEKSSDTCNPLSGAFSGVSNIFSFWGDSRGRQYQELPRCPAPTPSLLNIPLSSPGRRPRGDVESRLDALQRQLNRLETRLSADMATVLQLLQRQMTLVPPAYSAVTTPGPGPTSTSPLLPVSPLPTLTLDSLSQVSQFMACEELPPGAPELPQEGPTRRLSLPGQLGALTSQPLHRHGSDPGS

Turning to `COCCOCCOCCOCCOCCOCCOC(=O)NC(C(=O)NC(Cc1ccccc1)C(O)CN(Cc1ccc(-c2ccccn2)cc1)NC(=O)C(NC(=O)OC)C(C)(C)C)C(C)(C)C` (centres unmarked) [mono-mPEG6-Atazanavir], the IC50 was 1.31 nM in [1] and > 100000 nM at hERG (hERG current in HEK-293 cells, whole-cell patch clamp, 0.1 Hz, read-out: IC50 (Block of hERG at 0.1 Hz)). Also, the t½ (in series [2]; in “in vitro [4]”) was 1.73 h each time. Also, the Clint in “in vitro [3]” stood at 67.1 μL/min/mg protein; in “in vitro [4]”, 238 μL/min/mg protein. This molecule also registered a t1/2 in “in vitro [3]” of 0.345 h. For the same molecule, the “Rat Plasma Protein Binding Fu ± SD” value with rat plasma proteins is listed as 0.451 ± 0.0385. For the same molecule, in the series with dog plasma proteins, the “Dog Plasma Protein Binding Fu ± SD” value was 0.497 ± 0.0386. Besides, the “Monkey Plasma Protein Binding Fu ± SD” value in the series with monkey plasma proteins is reported as 0.598 ± 0.00839. For the same molecule, in the series on mouse plasma proteins, the “Mouse Plasma Protein Binding Fu ± SD” value was 0.159 ± 0.0167. Further, the “Mean % inhibition ± SEM (Block of hERG at 0.1 Hz)” value was 4.4 ± 0.4% on hERG (10 μM), 12.7 ± 1.3% at hERG (30 μM) and 26.0 ± 1.0% on hERG (100 μM).
